We go through 15 compounds from US20100297073A1, “HETEROCYCLIC ANTIVIRAL COMPOUNDS” (priority 2009, published 2010).

The target in data set [1] is T1, HCV polymerase (NS5B570n-Con1) (Hepatitis C virus genotype 1b, UniProt Q9WMX2).
T1 construct: contains a 21 amino acid deletion at the C-terminus relative to the full-length HCV polymerase; 6-histidine (N); made in house; host or cells: E. coli BL21(DE) pLysS, plasmid pET17b
In words: biochemical. On the set-up: species or system HCV Con1 strain. As to the method: HCV NS5B RNA Polymerase Activity
The enzymatic activity of HCV polymerase (NS5B570n-Con1) was measured as the incorporation of radiolabeled nucleotide monophosphates into acid insoluble RNA products. Unincorporated radiolabeled substrate was removed by filtration and scintillant was added to the washed and dried filter plate containing radiolabeled RNA product. The amount of RNA product generated by NS5B570-Con1 at the end of the reaction was directly proportional to the amount of light emitted by the scintillant.
The N-terminal 6-histidine tagged HCV polymerase, derived from HCV Con1 strain, genotype 1b (NS5B570n-Con1) contains a 21 amino acid deletion at the C-terminus relative to the full-length HCV polymerase and was purified from E. coli strain BL21(DE) pLysS. The construct, containing the coding sequence of HCV NS5B Con1 (GenBank accession number AJ242654) was inserted into the plasmid construct pET17b, downstream of a T7 promoter expression cassette and transformed into E. coli. A single colony was grown overnight as a starter culture and later used inoculate 10 L of LB media supplemented with 100 μg/mL ampicillin at 37° C. Protein expression was induced by the addition of 0.25 mM isopropyl-β-D-thiogalactopyranoside (IPTG) when optical density at […] of the culture was between 0.6 and 0.8 and cells were harvested after 16 to 18 h at 30° C. NS5B570n-Con1 was purified to homogeneity using a three-step protocol including subsequent column chromatography on Ni-NTA, SP-Sepharose HP and Superdex 75 resins.
Data was analyzed in Excel® (Microsoft®) and ActivityBase® (idbs®). The reaction in the absence of enzyme was used to determine the background signal, which was subtracted from the enzymatic reactions. […] All data was expressed as a percentage of the positive control.
the data where “Y” corresponds to the relative enzyme activity (in %), “% Min” is the residual relative activity at saturating compound concentration, “% Max” is the relative maximum enzymatic activity, “X” corresponds to the compound concentration, and “S” is the Hill coefficient (or slope).

The next data set in a line: in vitro. As to conditions: human.
Data set [2] deals with genotype 1b HCV replicon in Huh7 cell line 2209-23. Briefly: HCV replicon assay (Renilla luciferase reporter). Format: cell-based. As to conditions: Hepatitis C virus, Huh-7, 72 h; 2209-23 cells, three days incubation, luciferase readout.
Another data set concerns HCV. As to conditions: cited from earlier work.

Regarding `COc1c(-c2cc3ccccc3c(=O)[nH]2)cc(-c2ccc[nH]c2=O)cc1C(C)(C)C`, the melting point (usually the temperature of the solid-liquid transition) lay within 138 to 140 °C. Same read-out and setting: the same measure for `COc1ccc(-c2cc(-c3cc4ccc(NS(C)(=O)=O)cc4c(=O)o3)c(OC)c(C(C)(C)C)c2)c(=O)[nH]1`: 231 to 233 °C.

Compound `COc1c(-c2cc(=O)c3cc(NS(C)(=O)=O)ccc3o2)cc(-c2ccc[nH]c2=O)cc1C(C)(C)C` [Compound I-1, N-{2-[3-tert-Butyl-2-methoxy-5-(2-oxo-1,2-dihydro-pyridin-3-yl)-phenyl]-4-oxo-4H-chromen-6-yl}-methanesulfonamide] gave a melting point greater than 300 °C. For the same compound, the IC50 (as a rule, the midpoint of a concentration-inhibition curve) in data set [1] is 3 nM. As for `COc1c(C2=CCc3cc(NS(C)(=O)=O)ccc3O2)cc(-c2ccc[nH]c2=O)cc1C(C)(C)C` [Compound I-2, N-{2-[3-tert-Butyl-2-methoxy-5-(2-oxo-1,2-dihydro-pyridin-3-yl)-phenyl]-4H-chromen-6-yl}-methanesulfonamide], the half-inhibitory concentration (IC50) in data set [1] turned out to be 14 nM. On the same count and under the same terms, the same measure for `COc1c(C2CCc3cc(NS(C)(=O)=O)ccc3O2)cc(-c2ccc[nH]c2=O)cc1C(C)(C)C` (centres unmarked) [Compound I-3, N-{2-[3-tert-Butyl-2-methoxy-5-(2-oxo-1,2-dihydro-pyridin-3-yl)-phenyl]-chroman-6-yl}-methanesulfonamide]: 1 nM. Regarding `CC(C)(C)c1cc(-c2cc3ccc(NS(C)(=O)=O)cc3c(=O)o2)cc(-c2ccc[nH]c2=O)c1` [Compound I-5, N-{3-[3-tert-Butyl-5-(2-oxo-1,2-dihydro-pyridin-3-yl)-phenyl]-1-oxo-1H-isochromen-7-yl}-methanesulfonamide], the melting point is greater than 300 °C. This compound showed an IC50 in data set [1] of 9 nM. The matching figures for `COc1c(-c2cc3ccc(NS(C)(=O)=O)cc3c(=O)o2)cc(-c2cc(F)c[nH]c2=O)cc1C(C)(C)C` [Compound I-6, N-{3-[3-tert-Butyl-5-(5-fluoro-2-oxo-1,2-dihydro-pyridin-3-yl)-2-methoxy-phenyl]-1-oxo-1H-isochromen-7-yl}-methanesulfonamide]: 295 to 297 °C and 3 nM. The matching figures for `COc1c(-c2cc3ccccc3c(=O)o2)cc(-c2ccc[nH]c2=O)cc1C(C)(C)C` [Compound I-7, 3-[3-tert-Butyl-4-methoxy-5-(1-oxo-1H-isochromen-3-yl)-phenyl]-1H-pyridin-2-one]: 253 to 255 °C and 2 nM. In turn, `COc1c(C2Cc3ccc(NS(C)(=O)=O)cc3C(=O)O2)cc(-c2ccc[nH]c2=O)cc1C(C)(C)C` (centres unmarked) [Compound I-9, N-{3-[3-tert-Butyl-2-methoxy-5-(2-oxo-1,2-dihydro-pyridin-3-yl)-phenyl]-1-oxo-isochroman-7-yl}-methanesulfonamide] displayed an IC50 in data set [1] of 6 nM. That is a single-digit nanomolar value. In turn, `COc1c(C2Cc3ccc(NS(C)(=O)=O)cc3CO2)cc(-c2ccc[nH]c2=O)cc1C(C)(C)C` (centres unmarked) [Compound I-10, N-{3-[3-tert-Butyl-2-methoxy-5-(2-oxo-1,2-dihydro-pyridin-3-yl)-phenyl]-isochroman-7-yl}-methanesulfonamide] gave a melting point of 170 to 175 °C. For the same compound, in data set [1], half-maximal inhibition (IC50) was put at 1 nM. Compound `COc1c(-c2cc3ccc(NS(C)(=O)=O)cc3c(=O)[nH]2)cc(-c2ccc[nH]c2=O)cc1C(C)(C)C` [Compound I-11, N-{3-[3-tert-Butyl-2-methoxy-5-(2-oxo-1,2-dihydro-pyridin-3-yl)-phenyl]-1-oxo-1,2-dihydro-isoquinolin-7-yl}-methanesulfonamide] had a melting point of 252 to 254 °C. The compound also yielded a CC50 in “in vitro” of 42600 nM. The compound also gave an IC50 in data set [1] of 4 nM. The IC50 in data set [2] worked out at 1 nM. As for `COc1c(-c2nc3ccc(NS(C)(=O)=O)cc3c(=O)[nH]2)cc(-c2ccc[nH]c2=O)cc1C(C)(C)C` [Compound I-13, N-{2-[3-tert-Butyl-2-methoxy-5-(2-oxo-1,2-dihydro-pyridin-3-yl)-phenyl]-4-oxo-3,4-dihydro-quinazolin-6-yl}-methanesulfonamide], the melting point is 228 to 230 °C. Besides, in data set [1], the concentration for half-maximal inhibition (IC50) was 9 nM.

`COc1c(-c2cc3ccc(NS(C)(=O)=O)cc3c(=O)o2)cc(-c2c[nH]c(=O)[nH]c2=O)cc1C(C)(C)C` [Compound I-14, N-{3-[3-tert-Butyl-5-(2,4-dioxo-1,2,3,4-tetrahydro-pyrimidin-5-yl)-2-methoxy-phenyl]-1-oxo-1H-isochromen-7-yl}-methanesulfonamide] gave a melting point greater than 300 °C. This compound also showed an IC50 in data set [1] of 1 nM. On to `COc1c(-c2cc3ccc(NS(C)(=O)=O)cc3c(=O)o2)cc(-c2cc(F)c[nH]c2=O)cc1C1(C(F)F)CC1` [Compound I-15], for which the IC50 in data set [1] stood at 0.2 nM. For `NC(=O)c1ncn([C@@H]2O[C@H](CO)[C@@H](O)[C@H]2O)n1` [Ribavirin, 1-((2R,3R,4S,5R)-3,4-Dihydroxy-5-hydroxymethyl-tetrahydro-furan-2-yl)-1H-[1,2,4]triazole-3-carboxylic acid amide], the “effect on serum levels of HCV-RNA” value in the data set with HCV (monotherapy / sole treatment) is “does not lower serum levels of HCV-RNA”. Also, in the data set with HCV (monotherapy), the “patients with serum amino transferase levels reduced to normal” value is 40%.
